Consider 16 molecules from EP0592600B1, “PROTEINS S POLYPEPTIDES AND USES THEREOF” (THE SCRIPPS RESEARCH INSTITUTE, priority 1991, dated 1993).

Ends that are not written are not given here. Peptide text beside a SMILES is read from it.

The target in assay [1] is T1, PS:C4BP complex (Homo sapiens, UniProt P04003+P20851).
T1 construct: Purified human C4BP was obtained from 5 liters (1) of human citrated plasma; from tissue; host or cells: human citrated plasma (C4BP); protein S per Schwarz et al
T1 sequence (P04003 49-597): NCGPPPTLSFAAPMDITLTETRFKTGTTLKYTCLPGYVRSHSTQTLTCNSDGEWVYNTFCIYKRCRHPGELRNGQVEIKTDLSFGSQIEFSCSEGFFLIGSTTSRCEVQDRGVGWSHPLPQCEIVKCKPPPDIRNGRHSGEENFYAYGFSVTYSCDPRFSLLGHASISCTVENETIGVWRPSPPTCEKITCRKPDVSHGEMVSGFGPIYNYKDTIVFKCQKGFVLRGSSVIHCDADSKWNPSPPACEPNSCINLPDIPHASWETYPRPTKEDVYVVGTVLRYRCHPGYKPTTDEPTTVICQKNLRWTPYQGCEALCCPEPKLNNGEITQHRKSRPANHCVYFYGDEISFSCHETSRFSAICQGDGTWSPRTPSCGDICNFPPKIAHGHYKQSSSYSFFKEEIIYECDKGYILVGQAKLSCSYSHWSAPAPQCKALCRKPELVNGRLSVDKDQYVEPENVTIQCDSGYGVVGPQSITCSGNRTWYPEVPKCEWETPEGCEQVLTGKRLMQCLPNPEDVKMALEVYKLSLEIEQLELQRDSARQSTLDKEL
T1 sequence (P20851 18-252): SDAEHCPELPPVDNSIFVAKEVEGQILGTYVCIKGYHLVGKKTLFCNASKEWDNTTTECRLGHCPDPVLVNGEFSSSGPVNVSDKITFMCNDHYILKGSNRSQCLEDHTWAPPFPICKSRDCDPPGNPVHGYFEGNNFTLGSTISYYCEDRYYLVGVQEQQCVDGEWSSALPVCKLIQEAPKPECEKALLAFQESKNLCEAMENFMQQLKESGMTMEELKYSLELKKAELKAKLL
Kind of assay: Peptide Inhibition Assay: binding of b-PS to C4BP in solid phase. The settings on record: peptide concentration of 800 µM; read-out: percent inhibition of PS:C4BP complex formation. As for the experimental part:
Each of the peptides produced as described in Example 1 and listed in Table 1 was analyzed for its ability to inhibit the binding of native protein S in liquid-phase to C4BP in solid-phase.
Microtiter wells of a 96 well plate were coated with 50 µl of 10 µg/ml purified C4BP in carbonate buffer (0.02 M Na2CO3, pH 9.0, 0.02% Na-Azide). After blocking with 10% BSA in TBS, 50 µl of different concentrations of peptides diluted in washing buffer (TBS, 0.2% BSA, 5mM CaCl, 0.02% Tween 20) were separately admixed to C4BP-coated wells. After 2 hours at room temperature, 50 µl of a solution of biotinylated protein S, were admixed to each well to form a second binding admixture having a final concentration of 2 µg/ml. The plate was agitated and the samples were incubated 1 hour at room temperature. The samples were discarded and the wells were washed 3 times with washing buffer. To each well, 50 µl of strepavidin-alkaline-phosphatase (1 µg/ml washing buffer) were admixed and allowed to incubate for 30 minutes at room temperature. The strepavidin-alkaline-phosphatase was then discarded and the wells were washed 6 times with washing buffer. The resulting optical densities of the reaction solutions were read as described before in Example 2C.
Results of the assay are reported as percent inhibition of C4BP binding. Percent of inhibition of C4BP binding is defined as: I = 100% - 100 x (deltaT /deltaC ) [formula] • where I is expressed as a percent; and • where 100% = delta/min of the amount of b-PS which specifically bound to C4BP-coated wells in the absence of any competing PS-peptide; and • where deltaT = the change in absorbance (405 nm) in the presence of competing PS-peptide; and • where deltaC = the change in absorbance (405 nm) in the absence of competing PS-peptide.

In assay [2] the target is T1, PS:C4BP complex. Kind of assay: Peptide inhibition of binding of b-C4BP to PS-coated wells. The settings on record: b-C4BP 1 µg/ml, PS-coated wells, peptide 0 - 500 µM; for IC90: read-out: IC90; for IC50: read-out: half-maximal inhibitory concentration (IC50). How it is done: An alternative approach was used to test the ability of the peptides, PSP-loop and PSP-428K, in comparison with that seen with the PSP-12 peptide, in inhibiting the binding of C4BP to PS. For this assay, the microtiter wells were coated with purified PS diluted to a concentration of 10 µg/ml in carbonate-coating buffer as described above. The wells were maintained to allow the PS to bind to the well walls. After the maintenance period, the wells were blocked also as described above. The selected PSP peptides were separately admixed at various concentrations ranging from 0 - 500 µM with biotinylated-C4BP (b-C4BP) at a concentration of 1 µg/ml. The admixtures were maintained on a fluid phase plate for 2 hours at room temperature to form peptide-C4BP complexes.
Fifty µl of the complexed admixtures were separately admixed to the prepared C4BP-coated wells and maintained for 1 hour at room temperature. Thereafter, the plate was washed and processed for developing as described above.

Assay [3] concerns the target T1, PS:C4BP complex. Kind of assay: Fluid-phase peptide inhibition of PS binding to b-C4BP, detected on MAb S-7-coated plates. The settings on record: b-C4BP 0.5 µg/ml, PS 1.0 µg/ml, peptide 0 - 500 µM. As for the experimental part: An alternative approach was used to test the ability of the peptides, PSP-loop, PSP-424K and PSP-428K, in comparison with that seen with the PSP-12 peptide, in inhibiting the binding of PS to C4BP, the result of which was detected on monoclonal antibody-coated plates. For this assay, biotinylated-C4BP (b-C4BP), PS and PSP peptides were admixed together at the respective concentrations of 0.5 µg/ml, 1.0 µg/ml and at a range of 0 - 500 µM (V:V:V). The admixtures were maintained for 2 hours at room temperature on a fluid phase plate to allow the binding and/or inhibition thereof of PS to C4BP by the PS-derived peptides. After the maintenance period, 50 µl of the admixture were separately admixed to wells previously coated with 10 µg/ml of MAb S-7 (ATCC No. HB 80819). The admixtures were maintained for 1 hour at room temperature to allow for the binding of C4BP to MAb S-7-antibody-coated plates. The binding of biotinylated complexes to the antibody-coated plates was detected as described in Example 5Aii.

For assay [4], the target named is T2, C4b binding protein (human, UniProt P04003 49-597; P20851 18-252).
T2 construct: mature; The beta chain is added from general knowledge; Biotinylated (b-C4BP) in some assays; also called C4BP; purified human C4BP
T2 sequence (looked up) 1: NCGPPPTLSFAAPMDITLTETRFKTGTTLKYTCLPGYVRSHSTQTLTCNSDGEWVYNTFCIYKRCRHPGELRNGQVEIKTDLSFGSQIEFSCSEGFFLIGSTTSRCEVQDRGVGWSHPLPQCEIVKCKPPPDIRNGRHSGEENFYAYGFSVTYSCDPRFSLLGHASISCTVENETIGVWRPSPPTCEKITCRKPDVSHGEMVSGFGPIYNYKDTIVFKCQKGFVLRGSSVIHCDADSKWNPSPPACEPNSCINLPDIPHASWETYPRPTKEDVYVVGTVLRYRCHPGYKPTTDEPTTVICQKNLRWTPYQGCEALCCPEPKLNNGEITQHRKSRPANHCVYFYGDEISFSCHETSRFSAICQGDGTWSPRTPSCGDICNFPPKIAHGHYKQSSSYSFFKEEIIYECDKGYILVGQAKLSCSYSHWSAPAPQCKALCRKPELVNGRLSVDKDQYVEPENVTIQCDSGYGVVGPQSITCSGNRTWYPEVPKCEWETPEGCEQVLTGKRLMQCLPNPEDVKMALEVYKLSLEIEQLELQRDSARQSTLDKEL
T2 sequence (looked up) 2: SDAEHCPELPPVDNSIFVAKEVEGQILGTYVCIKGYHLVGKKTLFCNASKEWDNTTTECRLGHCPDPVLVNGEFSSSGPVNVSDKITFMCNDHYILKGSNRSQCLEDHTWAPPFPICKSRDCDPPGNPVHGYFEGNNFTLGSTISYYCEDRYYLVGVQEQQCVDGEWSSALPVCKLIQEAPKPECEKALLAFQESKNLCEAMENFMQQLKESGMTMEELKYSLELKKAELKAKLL
In words: Competition ELISA, peptide preincubated with b-C4BP, PS-coated wells. A general note: An ELISA detects its analyte on a solid surface through an enzyme-linked reagent.

Assay [5] addresses T2, C4b binding protein. Kind of assay: Competition ELISA, peptide 800 µM on coated C4BP, then b-PS.

Take `CC[C@H](C)[C@H](NC(=O)CNC(=O)[C@@H](N)CO)C(=O)N[C@@H](CCCCN)C(=O)N[C@@H](CCC(=O)O)C(=O)N[C@H](C(=O)N[C@H](C(=O)N[C@@H](CCC(N)=O)C(=O)N[C@@H](CCC(=O)O)C(=O)N[C@@H](CCCCN)C(=O)N[C@@H](CCC(N)=O)C(=O)N[C@@H](CC(N)=O)C(=O)N[C@@H](CCCCN)C(=O)N[C@@H](Cc1c[nH]cn1)C(=O)N[C@@H](CS)C(N)=O)[C@@H](C)CC)[C@@H](C)CC` [PSP-12] (H-SGIKEIIQEKQNKHC-NH2; N-terminus assumed): the inhibition at 800 µM on PS:C4BP complex [1] turned out to be 80%. In addition, the IC90 on PS:C4BP complex [2] and at PS:C4BP complex [3] (read-out: IC90) was approximately 250 µM throughout. Besides, the IC50 on PS:C4BP complex [2] and on PS:C4BP complex [3] was approximately 50 µM throughout.
As to `CC[C@H](C)[C@H](NC(=O)CNC(=O)[C@H](CO)NC(=O)[C@H](C)NC(=O)CNC(=O)[C@@H](N)CCC(N)=O)C(=O)N[C@@H](CCCCN)C(=O)N[C@@H](CCC(=O)O)C(N)=O` [PSP-417A] (H-QGASGIKE-NH2), the inhibition at 800 µM at PS:C4BP complex [1] is approximately 80%.
On the same count and under the same terms, in the case of `CC[C@H](C)[C@H](NC(=O)CNC(=O)[C@H](CO)NC(=O)[C@H](C)NC(=O)CNC(=O)[C@H](CCC(N)=O)NC(=O)[C@H](CCCCN)NC(=O)[C@H](CCSC)NC(=O)[C@H](CC(C)C)NC(=O)[C@@H](N)CC(N)=O)C(=O)N[C@@H](CCCCN)C(=O)N[C@@H](CCC(=O)O)C(N)=O` [PSP-417P] (H-NLMKQGASGIKE-NH2) it was approximately 60%; in that of `CC[C@H](C)[C@H](NC(=O)CNC(=O)[C@H](CO)NC(=O)[C@H](C)NC(=O)CNC(=O)[C@H](CCC(N)=O)NC(=O)[C@H](CCCCN)NC(=O)[C@H](CCSC)NC(=O)[C@H](CC(C)C)NC(=O)[C@@H](N)CC(N)=O)C(N)=O` [PSP-417] (H-NLMKQGASGI-NH2), approximately 60%.
The same measure, in the same setting: then `CC[C@H](C)[C@H](NC(=O)CN)C(=O)N[C@@H](CCCCN)C(=O)N[C@@H](CCC(=O)O)C(=O)N[C@H](C(=O)N[C@H](C(=O)N[C@@H](CCC(N)=O)C(N)=O)[C@@H](C)CC)[C@@H](C)CC` [PSP-424, GIKEIIQ] (H-GIKEIIQ-NH2), with 40%; and `CC[C@H](C)[C@H](NC(=O)[C@H](CCC(=O)O)NC(=O)[C@@H](N)CCCCN)C(=O)N[C@H](C(=O)N[C@@H](CCC(N)=O)C(=O)N[C@@H](CCC(=O)O)C(=O)N[C@@H](CCCCN)C(=O)N[C@@H](CCC(N)=O)C(=O)N[C@@H](CC(N)=O)C(=O)N[C@@H](CCCCN)C(=O)N[C@@H](Cc1c[nH]cn1)C(=O)N[C@@H](CO)C(N)=O)[C@@H](C)CC` [PSP-428*, KEIIQEKQNKHS] (H-KEIIQEKQNKHS-NH2), with approximately 60%.
Regarding `CC[C@H](C)[C@H](NC(=O)CNC(=O)[C@@H](N)CO)C(=O)N[C@@H](CCCCN)C(=O)N[C@@H](CCC(=O)O)C(=O)N[C@H](C(=O)N[C@H](C(=O)N[C@@H](CCC(N)=O)C(=O)N[C@@H](CCCCN)C(=O)N[C@@H](CCCCN)C(=O)N[C@@H](CCC(N)=O)C(=O)N[C@@H](CC(N)=O)C(=O)N[C@@H](CCCCN)C(=O)N[C@@H](CS)C(N)=O)[C@@H](C)CC)[C@@H](C)CC` [PSP-428K, SGIKEIIQKKQNKC] (H-SGIKEIIQKKQNKC-NH2), at PS:C4BP complex [2], the IC90 is approximately 250 µM and the IC50 was approximately 50 µM.
For `NCCCC[C@H](NC(=O)[C@H](CC(N)=O)NC(=O)[C@H](CCC(N)=O)NC(=O)[C@H](CCCCN)NC(=O)[C@H](CCC(=O)O)NC(=O)[C@@H](N)CCC(N)=O)C(=O)N[C@@H](Cc1c[nH]cn1)C(=O)N[C@@H](CO)C(N)=O` [PSP-430*] (H-QEKQNKHS-NH2), the inhibition at 800 µM on PS:C4BP complex [1] is approximately 80%.
For SGIKEIIQEKQNKHC-NH2 (also: biotinylated form b-PSP-12 also used, also called b-PSP-12 (biotinylated)) [PSP-12], in the assay with C4b binding protein [4], the IC50 is approximately 50 µM and the concentration for an effect of 90% (IC90) is approximately 250 µM.
In the assay with C4b binding protein [5], NLMKQGASGIKE-NH2 [PSP-417P] gave a % inhibition of PS:C4BP complex formation of 60%.
On the same count and under the same terms, then QEKQNKHS-NH2 [PSP-430*], with 80%.
GIKEIIQ-NH2 [PSP-424] had a % inhibition of PS:C4BP complex formation in the assay with C4b binding protein [5] of 40%.

B1: PSP-428K* (peptide)
peptide: SGIKEIIQKKQNKC-NH2
notes: protein S 420-432,434 with a substitution
The molecule B1 displayed an IC90 with C4b binding protein [4] of approximately 250 µM.
Regarding NLMKQGASGI-NH2 [PSP-417], the % inhibition of PS:C4BP complex formation with C4b binding protein [5] is 60%.
For QGASGIKE-NH2 [PSP-417A], the % inhibition of PS:C4BP complex formation in the assay with C4b binding protein [5] came to 80%.
On the same count and under the same terms, then KEIIQEKQNKHS-NH2 [PSP-428*], with 60%.

In general, inhibition refers to the change of the read-out against control, counted positive when it falls. By IC90 is commonly meant the point of the concentration-response curve where the effect stands at 90%.
